The values that follow come from US10144706B2 (BRISTOL-MYERS SQUIBB COMPANY, priority 2016, dated 2018).

The target in the first experiment is T1, PD-1/PD-L1 interaction (PD-1-Ig / PD-L1-His) (Homo sapiens, UniProt Q9NZQ7).
T1 construct: hPDL1(18-239)-TVMV-His; TVMV protease site linker (C); made in house; host or cells: HEK293T
T1 sequence (Q9NZQ7 with tags, fused parts or gaps): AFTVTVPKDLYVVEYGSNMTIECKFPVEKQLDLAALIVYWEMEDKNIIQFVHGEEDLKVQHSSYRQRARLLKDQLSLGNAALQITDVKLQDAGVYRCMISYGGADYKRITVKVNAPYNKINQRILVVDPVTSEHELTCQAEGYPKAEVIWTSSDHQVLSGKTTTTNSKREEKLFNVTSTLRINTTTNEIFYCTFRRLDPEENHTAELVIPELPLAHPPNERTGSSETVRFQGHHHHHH
As to the kind of experiment: PD-1/PD-L1 Homogenous Time-Resolved Fluorescence (HTRF) binding assay. The settings on record: IC50 range class; PD-L1-His 10 nM, PD-1-Ig 20 nM; read-out: Range or IC50. An outline of the steps:
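Human PD-L1-His (10 nM final) was pre-incubated with inhibitor for 15 min, then PD-1-Ig (20 nM final) was added for a further 15 min in dPBS with 0.1% BSA and 0.05% Tween-20. Binding was detected by HTRF using Eu-cryptate anti-Ig (1 nM) and APC anti-His (20 nM).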
A general note: Time-resolved FRET reads energy transfer from a long-lived donor to a nearby acceptor.
In the case of `Cc1c(COc2cc(OCc3cncc(C#N)c3)c(CN(C)C(CCO)C(=O)O)cc2Cl)cccc1-c1cccc(COc2cc(OCc3cncc(C#N)c3)c(CN(C)C(CCO)C(=O)O)cc2Cl)c1C` (stereo not drawn) [Example 40810], the 50% inhibitory concentration (IC50) – broadly, the concentration needed to halve the response being measured – lay within 20.1 to 90 nM. On the same count and under the same terms, with `CCCN(Cc1cc(Cl)c(OCc2cccc(-c3cccc(COc4cc(OCc5cncc(C#N)c5)c(CN(CCC)C(CCO)C(=O)O)cc4Cl)c3C)c2C)cc1OCc1cncc(C#N)c1)C(CCO)C(=O)O` (stereo not drawn) [Example 40820] the figure was 0.04 to 20 nM; with `Cc1c(COc2cc(OCc3cncc(C#N)c3)c(CN(CC3CC3)C(CCO)C(=O)O)cc2Cl)cccc1-c1cccc(COc2cc(OCc3cncc(C#N)c3)c(CN(CC3CC3)C(CCO)C(=O)O)cc2Cl)c1C` (stereo not drawn) [Example 40830], 0.04 to 20 nM. Same read-out and setting: with `Cc1c(COc2cc(OCc3cncc(C#N)c3)c(CNC(CCO)C(=O)O)cc2Cl)cccc1-c1cccc(COc2cc(OCc3cncc(C#N)c3)c(CN(CC3CC3)C(CCO)C(=O)O)cc2Cl)c1C` (stereo not drawn) [Example 40840] the figure was 0.04 to 20 nM. Still for that read-out and setting: with `Cc1c(COc2cc(OCc3cncc(C#N)c3)c(CN(CC(C)C)C(CCO)C(=O)O)cc2Cl)cccc1-c1cccc(COc2cc(OCc3cncc(C#N)c3)c(CN(CC(C)C)C(CCO)C(=O)O)cc2Cl)c1C` (stereo not drawn) [Example 40850] the figure was 0.04 to 20 nM; with `Cc1c(COc2cc(OCc3cncc(C(N)=O)c3)c(CN[C@@H](CCO)C(=O)O)cc2Cl)cccc1-c1cccc(COc2cc(OCc3cncc(C(N)=O)c3)c(CN[C@@H](CCO)C(=O)O)cc2Cl)c1C` [Example 40870], 0.04 to 20 nM.

Consider `Cc1c(COc2cc(OCc3cncc(C#N)c3)c(CN[C@@H](C(=O)O)[C@H](C)O)cc2Cl)cccc1-c1cccc(COc2cc(OCc3cncc(C#N)c3)c(CN[C@@H](C(=O)O)[C@H](C)O)cc2Cl)c1C` [Example 40880], for which the IC50 lay in the range of 0.04 to 20 nM.

Consider `Cc1c(COc2cc(OCc3cncc(C#N)c3)c(CN[C@@H](C(=O)O)[C@@H](C)O)cc2Cl)cccc1-c1cccc(COc2cc(OCc3cncc(C#N)c3)c(CN[C@@H](C(=O)O)[C@@H](C)O)cc2Cl)c1C` [Example 40890], for which the half-inhibitory concentration (IC50) lay in the range of 0.04 to 20 nM. The same measure, in the same setting: with `COC(=O)[C@@H](NCc1cc(Cl)c(OCc2cccc(-c3cccc(COc4cc(OCc5cncc(C#N)c5)c(CN[C@H](C(=O)OC)[C@H](C)O)cc4Cl)c3C)c2C)cc1OCc1cncc(C#N)c1)[C@H](C)O` [Example 40900] the figure was 1000 to 10000 nM; with `COC(=O)[C@H](NCc1cc(Cl)c(OCc2cccc(-c3cccc(COc4cc(OCc5cncc(C#N)c5)c(CN[C@H](C(=O)O)C(=O)OC)cc4Cl)c3C)c2C)cc1OCc1cncc(C#N)c1)C(=O)O` [Example 40910], 1000 to 10000 nM; with `Cc1c(COc2cc(OCc3cncc(C#N)c3)c(CN[C@H](C(=O)O)[C@@H](C)OC(C)(C)C)cc2Cl)cccc1-c1cccc(COc2cc(OCc3cncc(C#N)c3)c(CN[C@H](C(=O)O)[C@@H](C)OC(C)(C)C)cc2Cl)c1C` [Example 40930], 0.04 to 20 nM.

Take `CO[C@H](C)[C@H](NCc1cc(Cl)c(OCc2cccc(-c3cccc(COc4cc(OCc5cncc(C#N)c5)c(CN[C@H](C(=O)O)[C@@H](C)OC)cc4Cl)c3C)c2C)cc1OCc1cncc(C#N)c1)C(=O)O` [Example 40940]: the IC50 lay in the range of 0.04 to 20 nM.

With `Cc1c(COc2cc(OCc3cncc(C#N)c3)c(CN[C@@H](C(=O)O)[C@H](C)OCc3ccccc3)cc2Cl)cccc1-c1cccc(COc2cc(OCc3cncc(C#N)c3)c(CN[C@@H](C(=O)O)[C@H](C)OCc3ccccc3)cc2Cl)c1C` [Example 40960], the half-inhibitory concentration (IC50) was 20.1 to 90 nM. Same read-out and setting: with `Cc1c(COc2cc(OCc3cncc(C#N)c3)c(CN(Cc3cncs3)C(CCO)C(=O)O)cc2Cl)cccc1-c1cccc(COc2cc(OCc3cncc(C#N)c3)c(CN(Cc3cncs3)C(CCO)C(=O)O)cc2Cl)c1C` (stereo not drawn) [Example 40990] the figure was 0.04 to 20 nM; with `Cc1c(COc2cc(OCc3cncc(C#N)c3)c(CN(CCC(C)C)C(CCO)C(=O)O)cc2Cl)cccc1-c1cccc(COc2cc(OCc3cncc(C#N)c3)c(CN(CCC(C)C)C(CCO)C(=O)O)cc2Cl)c1C` (stereo not drawn) [Example 41010], 0.04 to 20 nM; with `Cc1c(COc2cc(OCc3cncc(C#N)c3)c(CN(CC3CCCO3)C(CCO)C(=O)O)cc2Cl)cccc1-c1cccc(COc2cc(OCc3cncc(C#N)c3)c(CN(CC3CCCO3)C(CCO)C(=O)O)cc2Cl)c1C` (stereo not drawn) [Example 41020], 0.04 to 20 nM. As for `Cc1c(COc2cc(OCc3cncc(C#N)c3)c(CNC(CCO)C(=O)O)cc2Cl)cccc1-c1cccc(COc2cc(OCc3cncc(C#N)c3)c(CN(CC3CCCO3)C(CCO)C(=O)O)cc2Cl)c1C` (stereo not drawn) [Example 41030], the 50% inhibitory concentration (IC50) is 0.04 to 20 nM. Same read-out and setting: with `Cc1c(COc2cc(OCc3cncc(C#N)c3)c(CN[C@H](C(=O)O)[C@@H](C)OCc3ccccc3)cc2Cl)cccc1-c1cccc(COc2cc(OCc3cncc(C#N)c3)c(CN[C@H](C(=O)O)[C@@H](C)OCc3ccccc3)cc2Cl)c1C` [Example 41050] the figure was 20.1 to 90 nM; with `Cc1c(COc2cc(OCc3cncc(C#N)c3)c(CN[C@H](CCO)C(=O)O)cc2Cl)cccc1-c1cccc(COc2cc(OCc3cncc(C#N)c3)c(CN[C@H](CCO)C(=O)O)cc2Cl)c1C` [Example 41090], 0.04 to 20 nM. On the same count and under the same terms, with `Cc1c(COc2cc(OCc3cncc(C#N)c3)c(CN[C@H](C(=O)O)[C@@H](C)O)cc2Cl)cccc1-c1cccc(COc2cc(OCc3cncc(C#N)c3)c(CN[C@H](C(=O)O)[C@@H](C)O)cc2Cl)c1C` [Example 41100] the figure was 0.04 to 20 nM; with `Cc1c(COc2cc(OCc3cncc(C#N)c3)c(CN[C@H](C(=O)O)[C@H](C)O)cc2Cl)cccc1-c1cccc(COc2cc(OCc3cncc(C#N)c3)c(CN[C@H](C(=O)O)[C@H](C)O)cc2Cl)c1C` [Example 41110], 0.04 to 20 nM; with `Cc1c(COc2cc(OCc3cncc(C#N)c3)c(CN[C@@H](C(=O)O)[C@H](C)O)cc2Cl)cccc1-c1cccc(COc2cc(OCc3cncc(C#N)c3)c(CN[C@@H](C(=O)O)[C@@H](C)O)cc2Cl)c1C` [Example 41130], 0.04 to 20 nM. Still for that read-out and setting: with `C[C@@](CO)(NCc1cc(Cl)c(OCc2cccc(-c3cccc(COc4cc(OCc5cncc(C#N)c5)c(CN[C@@](C)(CO)C(=O)O)cc4Cl)c3Cl)c2Cl)cc1O)C(=O)O` [Example 41170] the figure was 0.04 to 20 nM; with `N#Cc1cncc(COc2cc(OCc3cccc(-c4cccc(COc5cc(O)c(CNC(CCO)C(=O)O)cc5Cl)c4Cl)c3Cl)c(Cl)cc2CNC(CCO)C(=O)O)c1` (stereo not drawn) [Example 41180], 0.04 to 20 nM; with `C[C@](CO)(NCc1cc(Cl)c(OCc2cccc(-c3cccc(COc4cc(OCc5cncc(C#N)c5)c(CN[C@](C)(CO)C(=O)O)cc4Cl)c3Cl)c2Cl)cc1OCc1cncc(C#N)c1)C(=O)O` [Example 41190], 0.04 to 20 nM. For the compound `CC(CO)(NCc1cc(Cl)c(OCc2cccc(-c3cccc(COc4cc(OCc5cncc(C#N)c5)c(CNC(C)(CO)C(=O)O)cc4Cl)c3Cl)c2Cl)cc1OCc1cncc(C#N)c1)C(=O)O` (stereo not drawn) [Example 41200], the half-inhibitory concentration (IC50) fell in the range of 0.04 to 20 nM. Still for that read-out and setting: with `Cc1c(COc2cc(OCc3cncc(C#N)c3)c(CN[C@](C)(CO)C(=O)O)cc2Cl)cccc1-c1cccc(COc2cc(OCc3cncc(C#N)c3)c(CN[C@](C)(CO)C(=O)O)cc2Cl)c1C` [Example 41210] the figure was 0.04 to 20 nM. Still for that read-out and setting: with `COc1ccc(CNCc2cc(Cl)c(OCc3cccc(-c4cccc(COc5cc(OCc6cncc(C#N)c6)c(CNCc6ccc(OC)cc6OC)cc5Cl)c4C)c3C)cc2OCc2cncc(C#N)c2)c(OC)c1` [Example 41230] the figure was 20.1 to 90 nM; with `N#Cc1cncc(COc2cc(OCc3cccc(-c4cccc(COc5cc(OCc6cncc(C#N)c6)c(CN6CCCC[C@H]6C(=O)O)cc5Cl)c4)c3)c(Cl)cc2CO)c1` [Example 50020], 20.1 to 90 nM. For `Cc1c(COc2cc(OCc3cncc(C#N)c3)c(CO)cc2Cl)cccc1-c1cccc(COc2cc(OCc3cncc(C#N)c3)c(CNC(CO)(Cc3ccccc3)C(=O)O)cc2Cl)c1C` (stereo not drawn) [Example 50060], the 50% inhibitory concentration (IC50) fell in the range of 0.04 to 20 nM. On the same count and under the same terms, with `Cc1c(COc2cc(OCc3cncc(C#N)c3)c(CO)cc2Cl)cccc1-c1cccc(COc2cc(OCc3cncc(C#N)c3)c(CNCC(O)CC(=O)O)cc2Cl)c1C` (stereo not drawn) [Example 50070] the figure was 0.04 to 20 nM.

`Cc1c(COc2cc(OCc3cncc(C#N)c3)c(CO)cc2Cl)cccc1-c1cccc(COc2cc(OCc3cncc(C#N)c3)c(CN3CCOC[C@@H]3C(=O)O)cc2Cl)c1C` [Example 50100]: the IC50 lay within 0.04 to 20 nM. As to `Cc1c(COc2cc(OCc3cncc(C#N)c3)c(CO)cc2Cl)cccc1-c1cccc(COc2cc(OCc3cncc(C#N)c3)c(CN3CCCC(C(=O)O)C3)cc2Cl)c1C` (stereo not drawn) [Example 50110], the IC50 was 0.04 to 20 nM. Consider `Cc1c(COc2cc(OCc3cncc(C#N)c3)c(CO)cc2Cl)cccc1-c1cccc(COc2cc(OCc3cncc(C#N)c3)c(CN3CCC[C@H](C(=O)O)C3)cc2Cl)c1C` [Example 50120], for which the IC50 was in the range of 0.04 to 20 nM. In the case of `Cc1c(COc2cc(OCc3cncc(C#N)c3)c(CO)cc2Cl)cccc1-c1cccc(COc2cc(OCc3cncc(C#N)c3)c(CN[C@@H](CCO)C(=O)O)cc2Cl)c1C` [Example 50150], the IC50 fell in the range of 0.04 to 20 nM. In the case of `Cc1c(COc2cc(OCc3cncc(C#N)c3)c(CO)cc2Cl)cccc1-c1cccc(COc2cc(OCc3cncc(C#N)c3)c(CN(CC(C)C)C(CCO)C(=O)O)cc2Cl)c1C` (stereo not drawn) [Example 50170], the IC50 fell in the range of 0.04 to 20 nM.

`Cc1c(COc2cc(OCc3cncc(C#N)c3)c(CO)cc2Cl)cccc1-c1cccc(COc2cc(OCc3cncc(C#N)c3)c(CN[C@@H](C(=O)O)[C@H](C)O)cc2Cl)c1C` [Example 50180]: the concentration for half-maximal inhibition (IC50) fell in the range of 0.04 to 20 nM.

The same experiment, now with this note: numeric IC50; PD-L1-His 10 nM, PD-1-Ig 20 nM; read-out: Range or IC50.
In the case of `COC(=O)[C@@H](NCc1cc(Cl)c(OCc2cccc(-c3cccc(COc4cc(OCc5cncc(C#N)c5)c(CN[C@H](C(=O)OC)[C@@H](C)OC(C)(C)C)cc4Cl)c3C)c2C)cc1OCc1cncc(C#N)c1)[C@@H](C)OC(C)(C)C` [Example 40950], the IC50 was found to be 168 nM. Still for that read-out and setting: with `N#Cc1cncc(COc2cc(OCc3cccc(-c4cccc(COc5cc(OCc6cncc(C#N)c6)c(CN6CCC(O)(C(=O)O)CC6)cc5Cl)c4)c3)c(Cl)cc2CO)c1` [Example 50040] the figure was 115 nM.
